Results on five compounds are retold here after US5663177A (SmithKline Beecham Corporation, priority 1995, dated 1997).

Series [1] has as its system wild-type (AUX-B 1) Chinese Hamster ovary cells. Put plainly: CHO Microtiter Cytotoxicity Assay (XTT), wild-type (AUX-B1). The note with it: Cricetulus griseus, AuxB1, 72 h, 3 days, read-out: Cytotoxicity IC50, Wildtype (AUX-B1). The class given is cell-based. How it is done: (§1) The in vitro assays used to test the compound of the present invention for antitumor activity are well-known. A generalized description of these assays follows.
(§2) Chinese Hamster ovary cells are grown in Alpha MEM Medium with L-glutamine and nucleosides and containing 10% fetal bovine serum and 100 units per mL penicillin-streptomycin in 75 cm^2 canted neck tissue culture flasks. They are harvested from these flasks using 0.5% trypsin. Microtiter plates (96-well, sterile, flat bottom) (Corning 25860) are seeded with 1.6×10^3 wild-type (AUX-B 1) Chinese Hamster ovary cells per well or 2×10^3 multidrug resistant (CH^R C5) Chinese Hamster ovary cells per well. The plates are incubated at 37° C., 5% CO2 overnight to allow the cells to attach. The outside wells of each plate are not used, due to evaporation during the incubation time. They are filled with medium and used as blanks. The next day, the medium is aspirated from the wells and 180 μL of fresh medium is added to each well. Compounds are diluted from stock solution in DMSO into fresh medium to a 10X concentration containing 2% DMSO. Twenty μL of this is then added to the 180 μL, of fresh medium in the wells. The plates are then incubated for another 3 days at 37° C., 5% CO2. Eight mg of XTT (SIGMA X-4251) is dissolved in 100 μL of DMSO which is then added to 3.9 mL of phosphate buffered saline without cations (PBS). Phenazine methosulfate (SIGMA P-9625) is dissolved in PBS to a concentration of 3 mg/mL and 20 μL of this is added to the XTT solution. Fifty μL of this XTT/PMS solution is added to each well of the microliter plate and the plates are incubated for 90 minutes at 37° C., 5% CO2 (until the OD450 ~1.0). The plate is then read on a UV Max plate reader, using wells without cells (i.e., containing only 200 μL of medium and 50 μL of XTT/PMS solution) as a background control.
In general terms: Tetrazolium dyes change colour on reduction, which living cells bring about.

The subject of series [2] is multidrug resistant (CH^R C5) Chinese Hamster ovary cells. Put plainly: CHO Microtiter Cytotoxicity Assay (XTT), multidrug resistant (CH^R C5). The series is classed as cell-based. The note with it: Cricetulus griseus, CHRC5, 72 h, 3 days. As for the experimental part:
as §1, §2

For series [3], the system named is P388. Kind of series: Cytotoxicity IC50, P388. The series is classed as cell-based. The note with it: Mus musculus.
A further series has as its system topoisomerase I. The note with it: background statement; cited from earlier work.
For another series, the system named is topoisomerase II. The note with it: background statement; cited from earlier work.
The conditions of series [4]: background statement; cited from earlier work.
The conditions of series [5]: background statement; cited from earlier work. The source holds these as a separate data set.
Series [6] has as its system P388. Kind of series: Efficacy in mouse tumor model P388 (in vivo). As for the experimental part:
The cytotoxicity and efficacy of the compound of the present invention was also tested in vivo using the well-known P388 mouse tumor model.

Series [7] deals with solid tumor cancers, particularly ovarian cancer and non-small cell lung carcinoma. The note with it: humans; cited from earlier work.

pIC50: −log10 of the molar value.

One may read the pIC50 as −log10 of the IC50, conventionally taken in molar units. On to `CC[C@@]1(O)C(=O)OCc2c1cc1n(c2=O)Cc2cc3ccccc3nc2-1` [Camptothecin], for which the pIC50 was 7.82 in series [1], 7.46 in [2] and 7.92 in the series with P388 [3]. Also, in the series with topoisomerase I, the “inhibition of topoisomerase I” value is listed as “known to inhibit topoisomerase I”. The “effect on topoisomerase II” value in the series on topoisomerase II is recorded as “no effect on topoisomerase II”. The water solubility result in [4] was “water-insoluble”.
Turning to `CCc1c2c(nc3ccc(OC(=O)N4CCC(N5CCCCC5)CC4)cc13)-c1cc3c(c(=O)n1C2)COC(=O)[C@]3(O)CC` [CPT-11, (S)-[1,4'-bipiperidine]-1'-carboxylic acid,4,11-diethyl-3,4,12,14-tetrahydro-4-hydroxy-3, 14-dioxo-1H-pyrano[3',4':6,7]indolizino[1,2-b]quinolin-9-yl], the toxicity result in [5] was “adverse toxicity profile”.
As for `CC[C@@]1(O)C(=O)OCc2c1cc1n(c2=O)Cc2cc3c(CN(C)C)c(O)ccc3nc2-1` [Topotecan, 9-dimethylaminomethyl-10-hydroxycamptothecin], the pIC50 in series [1] is 6.10; in series [2] it was 5.64; in the series on P388 [3], 7.52. Moreover, the “Efficacy in Mouse Tumor Models, % Inc. in Lifespan, P388” value in the series with P388 [6] (dose 14.4 mg/kg, route not given) is 156%. Besides, the “efficacy in clinical tests” value in series [7] is “demonstrated efficacy against several solid tumor cancers, particularly ovarian cancer and non-small cell lung carcinoma in humans”.
`CC[C@@]1(O)C(=O)OCc2c1cc1n(c2=O)Cc2c-1nc1ccc(O)c3c1c2CN(C)C3` [Formula I, S-9-ethyl-2,3-dihydro-4,9-dihydroxy-2-methyl-1H,12H-benzo[ij]pyrano[3', 4':6,7]indolizino[1,2-c][2,6]naphthyridine-10,13(H,15H)-dione]: the pIC50 was 7.28 in series [1], 6.08 in series [2] and 7.62 with P388 [3]. In the series with P388 [6] (dose 40 mg/kg ip), the “Efficacy in Mouse Tumor Models, % Inc. in Lifespan, P388” value is reported as 111%. Further, the “biological activity (cytotoxicity and efficacy in mouse tumor models) versus topotecan” value in the series with P388 [6] (summary of Table I) was “comparable to topotecan”.
`CC[C@@]1(O)C(=O)OCc2c1cc1n(c2=O)Cc2cc3c(N)cccc3nc2-1` [9-aminocamptothecin, (S)-10-amino-4-ethyl-4-hydroxy-1H-pyrano[3',4':6,7]indolizino[1,2-b]quinoline-3, 14(4H,12H)-dione]: in series [4], the water solubility entry is “limited water solubility”.
